Laboratory results taken from PubChem BioAssay AID2060887 (Molecular Pharmacology Branch, DTP, NCI, 2025).

System: 782815-120-R-J1-PDC complex spheroid viability
Experiment: Anticancer human tumor 782815-120-R-J1-PDC patient-derived colon adenocarcinoma cell line growth inhibition [RAS]
Settings: for IC50: curve of first compound; for viability, T/C: stronger effect = lower value
Source text: RAS pathway inhibitors in Combinations in Complex Spheroids
A high-throughput screen of multi-cell type tumor spheroids was designed to identify active combinations of RAS pathway inhibitors and targeted small molecules. Complex spheroids include a stromal component modeled by human endothelial cells (HUVEC) and fibroblasts modeled by human mesenchymal stem cells (MSCs). The concentration ranges selected for each drug and investigational agent were based upon clinically achievable concentrations if the clinical Cmax of the agent was known.
Compounds. The drugs and investigational agents: abemaciclib (NSC768073), cobimetinib (NSC768068), divarasib (GDC6063, NSC841802), docetaxel (NSC628503), GDC-1971 (RLY-1971, NSC841576), gemcitabine (NSC613327), inavolisib (NSC800729), ipatasertib (NSC767898), KB-0742 (NSC834161), MRTX-1133 (NSC836407), osimertinib (NSC779217), RMC-4630 (NSC839698), RMC-6236 (NSC851965), RMC-6291 (NSC852671), Ro-3306 (NSC812927), sapanisertib (NSC764658), SN-38 (NSC673596), staurosporine (NSC755774), SY5609 (NSC837396), and tovorafenib (DAY101, NSC766906), were obtained from the National Cancer Institute (NCI) Developmental Therapeutics Program Chemical Repository. The FDA-approved anticancer drug set is available from the NCI Developmental Therapeutics Program. […] The stock solutions were prepared in dimethyl sulfoxide (DMSO, Sigma-Aldrich, St. Louis, MO, cat. D2650) at 800-fold the tested concentration and stored at -70 degrees C prior to their use. All drugs and investigational agents were tested over a range starting from a high concentration at or near the clinical Cmax and decreasing in half-log increments. If the clinical Cmax for an agent had not been determined, the highest concentration tested was 10 microM.
Cell Culture. All cells were maintained in an incubator at 37 degrees C and 5% CO2 with 95% humidity. The PDC lines were cultured according to standard operating procedures established by the NCI PDMR. All PDCs were thawed and cultured in Matrigel-coated flasks prepared with a working solution of 1X Ham's F-12 nutrient mix, without supplementation (Invitrogen, Waltham, MA, cat. 11765054), 100 U/mL penicillin-streptomycin (Invitrogen, cat. 15140122), and 2.5% Matrigel (Corning Inc., Corning, NY, cat. 354248) for the first three passages. The 362531-283-R-J2-PDC and 782815-120-R-J1-PDC lines were cultured in 6C/Colon 1B media, which includes advanced DMEM/F-12 (Thermo Fisher Scientific, cat. 12634028), 10 mM HEPES (Thermo Fisher Scientific, cat. 15630080), 1X GlutaMAX supplement (Thermo Fisher Scientific, cat. 35050061), 0.1 mg/mL primocin (InvivoGen, San Diego, CA, cat. ant-pm-2), 10% defined fetal bovine serum, heat inactivated (HyClone Laboratories Inc., Logan, UT, cat. SH30070.03HI), 50% L-WRN conditioned media (ATCC, cat. CRL-3276), 1.25 mM N-Acetyl-L-cysteine (Sigma-Aldrich, cat. A9165), 10 mM nicotinamide (Sigma-Aldrich, cat. N0636), 1X B-27 supplement (Thermo Fisher Scientific, cat. 17504044), 1X N-2 supplement (Thermo Fisher Scientific, cat. 17502048), 50 ng/mL human EGF (Thermo Fisher Scientific, cat. PHG0311), and 10 microM Y-27632 dihydrochloride (Tocris Bioscience, cat. 1254). The K12877-001-R-J1-PDC line was cultured in 6I media, which includes all 6C/Colon 1B media plus 10 ng/mL human FGF-10 (PeproTech, cat. 100-26), 1 ng/mL human FGF-2 (PeproTech, cat. 100-18B), 1 µM prostaglandin E2 (Tocris Bioscience, cat. 2296), […] hydrocortisone (Sigma-Aldrich, cat. H4001), and […] bovine insulin (Sigma-Aldrich, cat. I6634). The K86415-001-R-J1-PDC line was cultured in 6D media, which includes all 6C/Colon 1B media components minus the L-WRN conditioned media. The 485176-168-R4-J1-PDC was cultured in PANC media, which includes all 6C/Colon 1B media plus 100 ng/mL human FGF-10 (PeproTech, cat. 100-26), 500 nM SB-431542 (Selleckchem, cat. S1067), and 10 nM gastrin (Tocris Bioscience, cat. 3006). […]
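Also: spheroids exposed to compounds for 7 days before reading.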
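For viability, T/C in this document: 100% = DMSO vehicle control viability.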

Cc1nc(N2CCC3(CC2)COC(C)C3N)c(CO)nc1Sc1ccnc(N)c1Cl (configuration not stated) + CCn1c(-c2cccnc2C(C)OC)c2c3cc(ccc31)N1CCOC(CC(NC(=O)C(C(C)C)N(C)C(=O)C3(F)CCN(C(=O)C#CC(C)(C)N(C)C)CC3)C(=O)N3CCCC(N3)C(=O)OCC(C)(C)C2)C1
IC50 (second compound 0.000949 µM): > 10 µM
IC50 (second compound 0.003 µM): > 10 µM
IC50 (second compound 0.00949 µM): > 10 µM
IC50 (second compound 0.03 µM): > 10 µM
IC50 (second compound 0.0949 µM): > 10 µM
IC50 (second compound 0.3 µM): > 10 µM
viability, T/C (second compound 0.000949 µM, first compound 0.0316 µM): 108%
viability, T/C (second compound 0.000949 µM, first compound 0.1 µM): 88%
viability, T/C (second compound 0.000949 µM, first compound 0.316 µM): 99.2%
viability, T/C (second compound 0.000949 µM, first compound 1 µM): 94.2%
viability, T/C (second compound 0.000949 µM, first compound 3.16 µM): 98.6%
viability, T/C (second compound 0.000949 µM, first compound 10 µM): 93.6%
viability, T/C (second compound 0.003 µM, first compound 0.0316 µM): 93.1%
viability, T/C (second compound 0.003 µM, first compound 0.1 µM): 95.5%
viability, T/C (second compound 0.003 µM, first compound 0.316 µM): 104%
viability, T/C (second compound 0.003 µM, first compound 1 µM): 94.5%
viability, T/C (second compound 0.003 µM, first compound 3.16 µM): 96%
viability, T/C (second compound 0.003 µM, first compound 10 µM): 95.7%
viability, T/C (second compound 0.00949 µM, first compound 0.0316 µM): 95.2%
viability, T/C (second compound 0.00949 µM, first compound 0.1 µM): 95.7%
viability, T/C (second compound 0.00949 µM, first compound 0.316 µM): 91.4%
viability, T/C (second compound 0.00949 µM, first compound 1 µM): 98.9%
viability, T/C (second compound 0.00949 µM, first compound 3.16 µM): 111%
viability, T/C (second compound 0.00949 µM, first compound 10 µM): 94%
viability, T/C (second compound 0.03 µM, first compound 0.0316 µM): 101%
viability, T/C (second compound 0.03 µM, first compound 0.1 µM): 92.6%
viability, T/C (second compound 0.03 µM, first compound 0.316 µM): 92.2%
viability, T/C (second compound 0.03 µM, first compound 1 µM): 98.6%
viability, T/C (second compound 0.03 µM, first compound 3.16 µM): 102%
viability, T/C (second compound 0.03 µM, first compound 10 µM): 87.7%
viability, T/C (second compound 0.0949 µM, first compound 0.0316 µM): 94.5%
viability, T/C (second compound 0.0949 µM, first compound 0.1 µM): 99.6%
viability, T/C (second compound 0.0949 µM, first compound 0.316 µM): 103%
viability, T/C (second compound 0.0949 µM, first compound 1 µM): 95.7%
viability, T/C (second compound 0.0949 µM, first compound 3.16 µM): 101%
viability, T/C (second compound 0.0949 µM, first compound 10 µM): 90.1%
viability, T/C (second compound 0.3 µM, first compound 0.0316 µM): 93.3%
viability, T/C (second compound 0.3 µM, first compound 0.1 µM): 90.1%
viability, T/C (second compound 0.3 µM, first compound 0.316 µM): 87.5%
viability, T/C (second compound 0.3 µM, first compound 1 µM): 96%
viability, T/C (second compound 0.3 µM, first compound 3.16 µM): 101%
viability, T/C (second compound 0.3 µM, first compound 10 µM): 91%
